Measured values reported in patent US5106857A, “N-(1-methyl-3-pyrrolidinyl)-1-(phenylmethyl)-1H-benzimidazol-2-amine and analogs as antiarrhythmic and muscle relaxing agents” (A. H. Robins Company, Incorporated, priority 1991, dated 1992).

Key:
[1] = test system: morphine-induced Straub Tail; test: Morphine-induced Straub Tail in Mice Test (muscle relaxant); type: in vivo; details: scored 30 min after test compound; for ED50: Mus musculus, 0.5 h, IP, morphine sulfate 60 mg/kg s.c. 15 min later, read-out: Straub Tail Inhibition ED50
Protocol: Administration of morphine sulfate to a mouse causes the tail to become elevated perpendicular to the body. […] The test procedure relied on to indicate positive muscle relaxant activity is the morphine-induced Straub Tail in Mice Test described by G. D. Novak in DRUG DEVELOPMENT RESEARCH (1982) 2: 383-386, except 8 animals per group were used per test rather than 10. The test is summarized as follows: The test drug, reference drug, and control articles to be administered are prepared in saline, 0.5% aqueous methylcellulose suspension or other, depending on solubility, in such concentration that the volume administered is 10 ml/kg. The initial screening dose of the test drug is usually 100 mg/kg. Groups of 8 mice are given an IP dose of a compound or vehicle prepared as described above. After 15 min, mice are administered morphine sulfate, 60 mg/kg in saline, subcutaneously. Fifteen minutes after administration of morphine (i.e., 30 min after test compound administration), mice were scored for presence of Straub Tail defined as an elevation of the tail at least 90 degrees from the horizontal. An ED50 value may be determined from at least three logarithmically spaced doses by the method of Litchfield and Wilcoxon (1949), J. PHARMACOL. EXP. THER. 96: 99-113.

[2] = test system: cardiac arrhythmias (coronary artery occlusion); test: Coronary artery ligation induced arrhythmias (conscious dogs); type: in vivo, dog (adult mongrel); details: for Antiarrhythmic Activity: Number of dogs in which drug is considered active/number treated: active = normal sinus rhythm within 2 hours
Protocol: Cardiac arrhythmias in dogs are induced by surgically restricting blood flow in a coronary artery. The test compound is administered intravenously and the heart rate and number and percentage of ectopic beats recorded at 15 minute intervals.
Adult mongrel dogs which are in the conscious state were used for the test and cardiac arrhythmias were induced by prior (22-24 hr) surgical preparation in which blood flow through a coronary artery was occluded by use of a constrictor device as reported by Smith et al, 1973. A Grass Model 79 Polygraph was used for recording the electrocardiogram (Grass 7P4 Preamplifier).
The test compound was administered by infusion (Harvard Model 942 Infusion Pump) into a saphenous vein to the test group of dogs at a rate of 0.5 mg/kg/min. Concentration of compound was adjusted according to the weight of the dog to allow a volume of infusion of 0.5 ml/min. Following the administration of the test compound, the heart rate, number of ectopic beats (ectopic beats/HR×1000) were recorded at 15 min intervals. The compound was considered active if it abolished the ectopic ventricular frequency and caused a return to normal sinus rhythm within 2 hours of administration. Cardiac arrhythmias produced by modification of method of Harris, 1950, Circulation 1, 1318, as reported by Smith et al, 1973, Pharmacologist 15, 192.

SMILES: CCN1CCC(Nc2nc3ccccc3n2CC)C1 (stereo not shown) [Compound 1, 1-Ethyl-N-(1-ethyl-3-pyrrolidinyl)-1H-benzimidazol-2-amine]
- ED50 [1]: 36 mg/kg
- Antiarrhythmic Activity: Number of dogs in which drug is considered active/number treated ([2]; dose 5 mg/kg IV): 1/2

SMILES: CCn1c(NC2CCN(C)C2)nc2ccccc21 (stereo not shown) [Compound 2, 1-Ethyl-N-(1-methyl-3-pyrrolidinyl)-1H-benzimidazol-2-amine]
- Antiarrhythmic Activity ([2]; dose 7 mg/kg IV): partially active (Reduces ectopic beats from 50-99%)

SMILES: CN1CCC(Nc2nc3ccccc3n2Cc2ccccc2)C1 (stereo not shown) [Compound 3, N-(1-Methyl-3-pyrrolidinyl)-1-(phenylmethyl)-1H-benzimidazol-2-amine]
- ED50 [1]: 21 mg/kg
- Antiarrhythmic Activity: Number of dogs in which drug is considered active/number treated ([2]; dose 7 mg/kg IV): 7/8

SMILES: CN1CCC(Nc2nc3ccccc3n2Cc2ccccc2)CC1 [Compound 4, N-(1-Methyl-4-piperidinyl)-1-(phenylmethyl)-1H-benzimidazol-2-amine]
- Straub Tail Inhibition % ([1]; dose 100 mg/kg IP): -25%
- Antiarrhythmic Activity: Number of dogs in which drug is considered active/number treated ([2]; dose 9 mg/kg IV): 2/6
